Several values for one entry are separate records, joined by “and”; a condition that tells them apart may be missing. Equal values may be shown once.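 Results reflect a 48-hour exposure of cells in 96-well plates to compound at five concentrations. Abbreviation: GI50, concentration required for 50% inhibition of growth.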 Activity calls are given as the source filed them. No stated cut-off is given here; in the data, active = GI50 up to about 1.1 µM and inactive = higher.
Tests used:
Experiment in all cases: inhibition of tumour cell growth, NCI panel, 48 h
A498 = test system: A498
OVCAR-4 = test system: OVCAR-4
SF-295 = test system: SF-295
Hs-578T = test system: Hs-578T
DU-145 = test system: DU-145
BT-549 = test system: BT-549
OVCAR-5 = test system: OVCAR-5
HOP-92 = test system: HOP-92
SNB-75 = test system: SNB-75
TK-10 = test system: TK-10
T47D = test system: T47D
HCC 2998 = test system: HCC 2998
HT-29 = test system: HT-29
OVCAR-3 = test system: OVCAR-3
LOX IMVI = test system: LOX IMVI
786-0 = test system: 786-0
MCF7 = test system: MCF7
HCT-116 = test system: HCT-116
NCI-H23 = test system: NCI-H23
IGROV-1 = test system: IGROV-1
HCT-15 = test system: HCT-15
SN12C = test system: SN12C
NCI-H226 = test system: NCI-H226
SK-MEL-5 = test system: SK-MEL-5
RXF 393 = test system: RXF 393
SK-OV-3 = test system: SK-OV-3
Malme-3M = test system: Malme-3M
SW-620 = test system: SW-620
EKVX = test system: EKVX
CAKI-1 = test system: CAKI-1
KM12 = test system: KM12
UACC-257 = test system: UACC-257
SK-MEL-28 = test system: SK-MEL-28
UO-31 = test system: UO-31
SF-539 = test system: SF-539
HL-60 = test system: HL-60
OVCAR-8 = test system: OVCAR-8
HOP-62 = test system: HOP-62
ACHN = test system: ACHN
COLO 205 = test system: COLO 205
A549 = test system: A549
UACC-62 = test system: UACC-62
MDA-MB-435 = test system: MDA-MB-435
U-251 = test system: U-251
PC-3 = test system: PC-3
MOLT-4 = test system: MOLT-4
RPMI-8226 = test system: RPMI-8226
SK-MEL-2 = test system: SK-MEL-2
NCI/ADR-RES = test system: NCI/ADR-RES
CCRF-CEM = test system: CCRF-CEM
SR = test system: SR
NCI-H522 = test system: NCI-H522
SNB-19 = test system: SNB-19
SF-268 = test system: SF-268
MDA-N = test system: MDA-N
K562 = test system: K562
M14 = test system: M14
MDA-MB-231 = test system: MDA-MB-231
NCI-H460 = test system: NCI-H460

Measured: GI50

CC(C)(C)OC(=O)C1C(=O)NC(=O)CC1CC(OCc1ccccc1)C(OCc1ccccc1)C(COCc1ccccc1)OCc1ccccc1 (configuration not stated)
inactive: A498 > 100 µM | OVCAR-4 31.6 µM and 21.1 µM | SF-295 54.8 µM and 28.3 µM | Hs-578T 12 µM and 23.8 µM | DU-145 > 100 µM and 54 µM | BT-549 24.9 µM and 14.6 µM | OVCAR-5 35.6 µM and 67.8 µM | HOP-92 17.5 µM and 13 µM | SNB-75 15 µM and 11.1 µM | TK-10 > 100 µM | T47D 29.3 µM | HCC 2998 30.8 µM and 54.2 µM | HT-29 4.76 µM and 8.24 µM | OVCAR-3 24.8 µM and 31.3 µM

CCCC(=O)OC1C(CO)OC(n2cc(F)c(=O)[nH]c2=O)C1F (configuration not stated)
active: MCF7 0.604 µM
inactive: LOX IMVI > 100 µM | 786-0 38.5 µM | A498 5.68 µM | HCT-116 22.3 µM | NCI-H23 > 100 µM | IGROV-1 95.7 µM | SN12C 15.4 µM | NCI-H226 > 100 µM | SK-MEL-5 53.2 µM | RXF 393 > 100 µM | SK-OV-3 > 100 µM | OVCAR-4 60.5 µM | Malme-3M 42.6 µM | SW-620 > 100 µM | EKVX 67 µM | CAKI-1 50.2 µM | SF-295 82 µM | Hs-578T 53.7 µM | KM12 > 100 µM | DU-145 17.3 µM | UACC-257 > 100 µM | SK-MEL-28 > 100 µM | UO-31 > 100 µM | BT-549 11.5 µM | SF-539 1.67 µM | HL-60 80.5 µM | OVCAR-8 72.1 µM | HOP-62 4.5 µM | ACHN 44.1 µM | OVCAR-5 > 100 µM | COLO 205 > 100 µM | A549 > 100 µM | UACC-62 24.1 µM | MDA-MB-435 59.4 µM | HOP-92 > 100 µM | U-251 7.45 µM | PC-3 92.3 µM | MOLT-4 > 100 µM | SNB-75 5.86 µM | RPMI-8226 1.57 µM | TK-10 > 100 µM | SK-MEL-2 > 100 µM | T47D > 100 µM | NCI/ADR-RES 11.3 µM | CCRF-CEM 3.91 µM | HT-29 55.2 µM | OVCAR-3 54.6 µM | SR 5.41 µM | NCI-H522 > 100 µM
> 100 µM: HCT-15

COc1ccc(CCNC(=O)c2ccccc2C2c3ccc(OCc4ccccc4)cc3Oc3cc(OCc4ccccc4)ccc32)cc1OC
active: HL-60 0.668 µM
> 100 µM: HCT-15
inactive: LOX IMVI > 100 µM | 786-0 > 100 µM | MCF7 > 100 µM | A498 > 100 µM | HCT-116 > 100 µM | NCI-H23 > 100 µM | IGROV-1 > 100 µM | SN12C > 100 µM | NCI-H226 > 100 µM | SK-MEL-5 > 100 µM | RXF 393 > 100 µM | SNB-19 > 100 µM | SK-OV-3 > 100 µM | OVCAR-4 > 100 µM | Malme-3M > 100 µM | SW-620 > 100 µM | EKVX > 100 µM | CAKI-1 > 100 µM | SF-295 > 100 µM | SF-268 > 100 µM | KM12 > 100 µM | DU-145 > 100 µM | UACC-257 94.6 µM | MDA-N > 100 µM | K562 > 100 µM | SK-MEL-28 > 100 µM | M14 > 100 µM | UO-31 > 100 µM | BT-549 > 100 µM | OVCAR-8 > 100 µM | HOP-62 > 100 µM | MDA-MB-231 > 100 µM | ACHN > 100 µM | OVCAR-5 > 100 µM | COLO 205 > 100 µM | A549 > 100 µM | UACC-62 > 100 µM | MDA-MB-435 > 100 µM | U-251 > 100 µM | PC-3 > 100 µM | MOLT-4 > 100 µM | RPMI-8226 > 100 µM | TK-10 > 100 µM | SK-MEL-2 > 100 µM | T47D > 100 µM | NCI/ADR-RES > 100 µM | HCC 2998 > 100 µM | HT-29 > 100 µM | OVCAR-3 > 100 µM | SR > 100 µM | NCI-H522 > 100 µM

CCOC(=O)c1c(-c2ccc(OC)cc2)ccn1C
active: LOX IMVI 0.00227 µM | SF-539 0.0975 µM
inactive: 786-0 > 10 µM | MCF7 > 10 µM | HCT-116 > 10 µM | NCI-H23 > 10 µM | IGROV-1 > 10 µM | SN12C > 10 µM | NCI-H226 > 10 µM | SK-MEL-5 > 10 µM | RXF 393 9.1 µM | SNB-19 > 10 µM | SK-OV-3 > 10 µM | OVCAR-4 > 10 µM | Malme-3M > 10 µM | SW-620 > 10 µM | EKVX > 10 µM | CAKI-1 > 10 µM | SF-295 > 10 µM | SF-268 > 8.41 µM | Hs-578T > 10 µM | KM12 > 10 µM | DU-145 > 10 µM | UACC-257 > 10 µM | K562 > 10 µM | SK-MEL-28 4.54 µM | M14 > 10 µM | UO-31 > 10 µM | BT-549 > 10 µM | OVCAR-8 > 10 µM | HOP-62 > 10 µM | MDA-MB-231 > 10 µM | ACHN > 10 µM | OVCAR-5 > 10 µM | COLO 205 > 10 µM | A549 > 10 µM | UACC-62 > 10 µM | MDA-MB-435 > 10 µM | HOP-92 > 10 µM | U-251 > 10 µM | MOLT-4 > 10 µM | SNB-75 > 10 µM | TK-10 > 10 µM | SK-MEL-2 > 10 µM | T47D > 10 µM | NCI/ADR-RES > 10 µM | HCC 2998 > 10 µM | CCRF-CEM > 10 µM | HT-29 > 10 µM | NCI-H460 > 10 µM | OVCAR-3 > 10 µM | SR > 10 µM | NCI-H522 > 9.62 µM
> 10 µM: HCT-15
